“And” between values parts separate entries of the source, which are not always exact repeats. Identical values can stand only once. Toxic doses and inconclusive results are not listed. Residues, ends and D or L forms follow the SMILES beside them. *: point of attachment. Trt = c1ccc(C(c2ccccc2)(c2ccccc2)*)cc1; Cbz = O=C(OCc1ccccc1)*
Tested on: CD2F1 mice, L1210 leukemia ip, survival T/C
Experiment: NCI In Vivo Anticancer Drug Screen. Data for tumor model L1210 Leukemia (intraperitoneal) in CD2F1 (CDF1) mice
Conditions: higher = longer survival
Method in brief: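 Implant tumor; dose compound or vehicle; measure endpoint in both groups; report treated divided by control.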

[1] = endpoint: mean survival time, dose: 12.5 mg/kg/injection, schedule: Q01DX009 (ip), vehicle: saline with Tween-80
[2] = endpoint: mean survival time, dose: 50.0 mg/kg/injection, schedule: Q01DX009 (ip), vehicle: saline with Tween-80
[3] = endpoint: mean survival time, dose: 100.0 mg/kg/injection, schedule: Q01DX009 (ip), vehicle: saline with Tween-80
[4] = endpoint: mean survival time, dose: 100.0 mg/kg/injection, schedule: Q01DX009 (ip), vehicle: other
[5] = endpoint: mean survival time, dose: 100.0 mg/kg/injection, schedule: Q01DX001 (ip), vehicle: saline with Tween-80

## Nc1nc(-c2ccc([N+](=O)[O-])cc2)c([N+](=O)[O-])c(=O)[nH]1
endpoint: mean survival time, dose: 3.13 mg/kg/injection, schedule: Q01DX009 (ip), vehicle: saline with Tween-80
  T/C: 96 % of control
endpoint: mean survival time, dose: 6.25 mg/kg/injection, schedule: Q01DX009 (ip), vehicle: saline with Tween-80
  T/C: 95 % of control
endpoint: mean survival time, dose: 12.5 mg/kg/injection, schedule: Q01DX001 (ip), vehicle: saline with Tween-80
  T/C: 94 % of control
[1]
  T/C: 95 % of control

## CC/C=N/Nc1ccc([N+](=O)[O-])cc1[N+](=O)[O-]
[1]
  T/C: 91 % of control
endpoint: mean survival time, dose: 25.0 mg/kg/injection, schedule: Q01DX009 (ip), vehicle: saline with Tween-80
  T/C: 92 % of control
[2]
  T/C: 93 % of control

## c1cc2nc(c1)CSCCCCCCSC2
[3]
  T/C: 91 % of control
endpoint: mean survival time, dose: 200.0 mg/kg/injection, schedule: Q01DX009 (ip), vehicle: saline with Tween-80
  T/C: 90 % of control
endpoint: mean survival time, dose: 400.0 mg/kg/injection, schedule: Q01DX009 (ip), vehicle: saline with Tween-80
  T/C: 91 % of control

## C=C.O=C(O)/C=C\C(=O)O.[Mn]
endpoint: mean survival time, dose: 1.0 mg/kg/injection, schedule: Q01DX009 (ip), vehicle: saline with Tween-80
  T/C: 95 % of control
endpoint: mean survival time, dose: 1.0 mg/kg/injection, schedule: Q04DX003 (ip), vehicle: saline with Tween-80
  T/C: 97 % of control
endpoint: mean survival time, dose: 2.0 mg/kg/injection, schedule: Q01DX009 (ip), vehicle: saline with Tween-80
  T/C: 95 % of control
endpoint: mean survival time, dose: 2.0 mg/kg/injection, schedule: Q04DX003 (ip), vehicle: saline with Tween-80
  T/C: 95 % of control
endpoint: mean survival time, dose: 4.0 mg/kg/injection, schedule: Q04DX003 (ip), vehicle: saline with Tween-80
  T/C: 91 % of control

## CC(O)C1OC(n2cnc3c(=O)[nH]c(N)nc32)C(O)C1O (stereo not drawn)
endpoint: mean survival time, dose: 12.5 mg/kg/injection, schedule: Q01DX005 (ip), vehicle: distilled water + Tween-80
  T/C: 101 % of control
endpoint: mean survival time, dose: 25.0 mg/kg/injection, schedule: Q01DX005 (ip), vehicle: distilled water + Tween-80
  T/C: 100 % of control
endpoint: mean survival time, dose: 50.0 mg/kg/injection, schedule: Q01DX005 (ip), vehicle: distilled water + Tween-80
  T/C: 101 % of control
endpoint: mean survival time, dose: 100.0 mg/kg/injection, schedule: Q01DX005 (ip), vehicle: distilled water + Tween-80
  T/C: 97 % of control
endpoint: mean survival time, dose: 200.0 mg/kg/injection, schedule: Q01DX005 (ip), vehicle: distilled water + Tween-80
  T/C: 97 % of control
endpoint: median survival time, dose: 12.5 mg/kg/injection, schedule: Q01DX005 (ip), vehicle: distilled water + Tween-80
  T/C: 112 % of control
endpoint: median survival time, dose: 20.0 mg/kg/injection, schedule: Q01DX005 (ip), vehicle: distilled water + Tween-80
  T/C: 108 % of control
endpoint: median survival time, dose: 50.0 mg/kg/injection, schedule: Q01DX005 (ip), vehicle: distilled water + Tween-80
  T/C: 112 % of control
endpoint: median survival time, dose: 100.0 mg/kg/injection, schedule: Q01DX005 (ip), vehicle: distilled water + Tween-80
  T/C: 104 % of control
endpoint: median survival time, dose: 200.0 mg/kg/injection, schedule: Q01DX005 (ip), vehicle: distilled water + Tween-80
  T/C: 96 % of control

## COc1cc2c(c(OC)c1OC)-c1ccc(SC)c(=O)cc1[C@@H](NC1OCC(O)C(O)C1O)CC2 (stereo partly drawn)
endpoint: mean survival time, dose: 6.0 mg/kg/injection, schedule: Q01DX009 (ip), vehicle: other
  T/C: 102 % of control
endpoint: mean survival time, dose: 12.0 mg/kg/injection, schedule: Q01DX009 (ip), vehicle: other
  T/C: 120 % of control
endpoint: mean survival time, dose: 12.5 mg/kg/injection, schedule: Q01DX009 (ip), vehicle: other
  T/C: 106 % of control
endpoint: mean survival time, dose: 25.0 mg/kg/injection, schedule: Q01DX009 (ip), vehicle: other
  T/C: 119 % of control
[4]
  T/C: 88 % of control

## CCCCCCCCCCCCCCCCCCOCC(COP(=O)([O-])OCC[N+](C)(C)C)OC (stereo not drawn)
endpoint: median survival time, dose: 6.25 mg/kg/injection, schedule: Q01DX009 (ip), vehicle: suspension in saline
  T/C: 98 % of control
endpoint: median survival time, dose: 12.5 mg/kg/injection, schedule: Q01DX009 (ip), vehicle: suspension in saline
  T/C: 93 % of control
endpoint: median survival time, dose: 25.0 mg/kg/injection, schedule: Q01DX009 (ip), vehicle: suspension in saline
  T/C: 104 % of control
endpoint: median survival time, dose: 50.0 mg/kg/injection, schedule: Q01DX009 (ip), vehicle: suspension in saline
  T/C: 88 % of control

## O=C(O)CCCc1ccc(Oc2ccccc2)cc1
[4]
  T/C: 94 % of control
endpoint: mean survival time, dose: 100.0 mg/kg/injection, schedule: Q04DX003 (ip), vehicle: other
  T/C: 106 % of control
endpoint: mean survival time, dose: 200.0 mg/kg/injection, schedule: Q01DX009 (ip), vehicle: other
  T/C: 95 % of control
endpoint: mean survival time, dose: 200.0 mg/kg/injection, schedule: Q04DX003 (ip), vehicle: other
  T/C: 93 % of control
endpoint: mean survival time, dose: 400.0 mg/kg/injection, schedule: Q01DX009 (ip), vehicle: other
  T/C: 96 % of control
endpoint: mean survival time, dose: 400.0 mg/kg/injection, schedule: Q04DX003 (ip), vehicle: other
  T/C: 95 % of control

## OCCOCC12c3ccccc3C3C(c4ccccc41)C32 (stereo not drawn)
endpoint: mean survival time, dose: 25.0 mg/kg/injection, schedule: Q01DX001 (ip), vehicle: saline with Tween-80
  T/C: 91 % of control
endpoint: mean survival time, dose: 50.0 mg/kg/injection, schedule: Q01DX001 (ip), vehicle: saline with Tween-80
  T/C: 97 % of control
[5]
  T/C: 105 % of control
endpoint: mean survival time, dose: 200.0 mg/kg/injection, schedule: Q01DX001 (ip), vehicle: saline with Tween-80
  T/C: 94 % of control

## COC(=O)C(CSC(c1ccccc1)(c1ccccc1)c1ccccc1)NC(=O)C(CC(N)=O)NC(=O)OCc1ccccc1 (stereo not drawn) (Cbz-Asn-Cys(Trt)-OMe; configuration not given here)
endpoint: median survival time, dose: 12.5 mg/kg/injection, schedule: Q01DX009 (ip), vehicle: distilled water + Tween-80
  T/C: 101 % of control
endpoint: median survival time, dose: 25.0 mg/kg/injection, schedule: Q01DX009 (ip), vehicle: distilled water + Tween-80
  T/C: 108 % of control
endpoint: median survival time, dose: 50.0 mg/kg/injection, schedule: Q01DX009 (ip), vehicle: distilled water + Tween-80
  T/C: 113 % of control and 107 % of control
endpoint: median survival time, dose: 100.0 mg/kg/injection, schedule: Q01DX009 (ip), vehicle: distilled water + Tween-80
  T/C: 114 % of control
endpoint: median survival time, dose: 200.0 mg/kg/injection, schedule: Q01DX009 (ip), vehicle: distilled water + Tween-80
  T/C: 162 % of control

## CCOc1ccc(Cl)cc1
[2]
  T/C: 96 % of control
[3]
  T/C: 98 % of control

## Cc1ccccc1NC(=O)/C=C\C(=O)O
endpoint: mean survival time, dose: 20.0 mg/kg/injection, schedule: Q01DX009 (ip), vehicle: saline with Tween-80
  T/C: 105 % of control
endpoint: mean survival time, dose: 20.0 mg/kg/injection, schedule: Q04DX003 (ip), vehicle: saline with Tween-80
  T/C: 102 % of control
endpoint: mean survival time, dose: 40.0 mg/kg/injection, schedule: Q01DX009 (ip), vehicle: saline with Tween-80
  T/C: 104 % of control
endpoint: mean survival time, dose: 40.0 mg/kg/injection, schedule: Q04DX003 (ip), vehicle: saline with Tween-80
  T/C: 97 % of control
endpoint: mean survival time, dose: 80.0 mg/kg/injection, schedule: Q01DX009 (ip), vehicle: saline with Tween-80
  T/C: 102 % of control
endpoint: mean survival time, dose: 80.0 mg/kg/injection, schedule: Q04DX003 (ip), vehicle: saline with Tween-80
  T/C: 97 % of control

## O=C(CCl)N1CCC(CC2(c3cc4ccccc4[nH]3)OCCO2)CC1
endpoint: mean survival time, dose: 50.0 mg/kg/injection, schedule: Q04DX002 (ip), vehicle: other
  T/C: 106 % of control
endpoint: mean survival time, dose: 100.0 mg/kg/injection, schedule: Q04DX002 (ip), vehicle: other
  T/C: 109 % of control
endpoint: mean survival time, dose: 200.0 mg/kg/injection, schedule: Q04DX002 (ip), vehicle: other
  T/C: 91 % of control

## CCOc1ccc(Br)cc1/C=C(\C#N)c1ccc([N+](=O)[O-])cc1
endpoint: mean survival time, dose: 0.1 mg/kg/injection, schedule: Q01DX009 (ip), vehicle: saline with Tween-80
  T/C: 98 % of control
endpoint: mean survival time, dose: 0.2 mg/kg/injection, schedule: Q01DX009 (ip), vehicle: saline with Tween-80
  T/C: 97 % of control
endpoint: mean survival time, dose: 0.39 mg/kg/injection, schedule: Q01DX009 (ip), vehicle: saline with Tween-80
  T/C: 93 % of control
endpoint: mean survival time, dose: 0.4 mg/kg/injection, schedule: Q01DX009 (ip), vehicle: saline with Tween-80
  T/C: 90 % of control
endpoint: mean survival time, dose: 12.5 mg/kg/injection, schedule: Q04DX003 (ip), vehicle: saline with Tween-80
  T/C: 87 % of control
endpoint: mean survival time, dose: 25.0 mg/kg/injection, schedule: Q04DX003 (ip), vehicle: saline with Tween-80
  T/C: 89 % of control
endpoint: mean survival time, dose: 50.0 mg/kg/injection, schedule: Q04DX003 (ip), vehicle: saline with Tween-80
  T/C: 86 % of control

## N=C(N)c1ccc(OCCOc2cccc(N)c2)cc1
endpoint: mean survival time, dose: 25.0 mg/kg/injection, schedule: Q01DX009 (ip), vehicle: saline
  T/C: 100 % of control
endpoint: mean survival time, dose: 50.0 mg/kg/injection, schedule: Q01DX009 (ip), vehicle: saline
  T/C: 95 % of control
[3]
  T/C: 93 % of control
endpoint: mean survival time, dose: 100.0 mg/kg/injection, schedule: Q01DX009 (ip), vehicle: saline
  T/C: 97 % of control

## CCOC(=O)c1cc(C[N+](C)(C)C)oc1C
endpoint: mean survival time, dose: 25.0 mg/kg/injection, schedule: Q01DX001 (ip), vehicle: saline
  T/C: 96 % of control
endpoint: mean survival time, dose: 50.0 mg/kg/injection, schedule: Q01DX001 (ip), vehicle: saline
  T/C: 102 % of control
[5]
  T/C: 106 % of control
endpoint: mean survival time, dose: 100.0 mg/kg/injection, schedule: Q01DX001 (ip), vehicle: saline
  T/C: 98 % of control

## CC1CCOC(C(C)C)O1 (stereo not drawn)
endpoint: mean survival time, dose: 50.0 mg/kg/injection, schedule: Q04DX002 (ip), vehicle: saline
  T/C: 96 % of control
endpoint: mean survival time, dose: 100.0 mg/kg/injection, schedule: Q04DX002 (ip), vehicle: saline
  T/C: 96 % of control
endpoint: mean survival time, dose: 200.0 mg/kg/injection, schedule: Q04DX002 (ip), vehicle: saline
  T/C: 92 % of control

From PubChem BioAssay AID256 (DTP/NCI, 2004)
